Experimental data published in patent publication US10016356B2, “Sebum secretion inhibitory agent” (BASF Beauty Care Solutions France S.A.S., priority 2008, dated 2018).

Tests used:
[1] = tested on: Caucasian and Asian volunteers; experiment: Determination of squalene in Sebutape patches (HPTLC, densitometry); format: in vivo, human; conditions: after 28 days of treatment; zinc gluconate 1%
Experimental: (§1) The principle of this evaluation is based on the clinical and instrumental analysis of samples of secretions of sebum using Sebutape™ patches according to the conventional method.
(§2) Caucasian and Asian volunteers applied a test product once a day, in blind conditions. Clinical and instrumental assessments, by application of Sebutape™ patches, were carried out on D0, D14 and D28 and the contents of these samples of Sebutape™ patches were analysed quantitatively by image analyser (polarimetric imaging). Determination of the squalene taken in the Sebutape™ patches was carried out as follows:
The Sebutape™ patches were treated by extraction with 10 ml of ether. The lipid residues were deposited on an HPTLC silica gel nanoplate on an aluminium support, one lane of which was reserved for receiving a deposit of 10 μg of squalene standard.
The contents of the plates were subjected to migration in heptane.
The squalene spots were then quantified by densitometry using an instrument of the ChromatoScan CS-93 (Shimadzu) type. Reading was based on absorption at 450 nm and the area of the peaks was expressed in arbitrary units in the table of results given below.

Asian volunteers = experiment: Self-evaluation of skin texture (refinement of skin grain); format: in vivo, human; conditions: 2 days after stopping the 28-day treatment, extract at 2%, zinc gluconate positive control
Experimental: (§3) The experiment was conducted on Caucasian and Asian volunteers according to the conditions described in Example 3 for 28 days of treatment (last application on D27 in the evening). Assessments carried out on D30 allowed the persistence of the effect of an extract according to the invention on the production of sebum to be evaluated, two days after stopping the treatment.
Moreover, 2 days after stopping the treatment, 71% of the Asian volunteers who had applied the extract according to Example 1a) at 2% declared that there was refinement of their skin grain (p<0.05). In comparison, only 52% of the volunteers in the group of volunteers who had applied the positive control (zinc gluconate) noticed an improvement in this parameter.

[2] = tested on: Caucasian and Asian volunteers; experiment: Clinical assessment of pore size and shiny appearance in volunteers applying the product once a day; format: in vivo, human; conditions: after 28 days of treatment, extract at 2%, zinc gluconate 1%
Experimental: as §2, §3

[3] = tested on: Caucasian and Asian volunteers; experiment: Number of active sebaceous glands (number of spots on Sebutape patches, image analysis); format: in vivo, human; conditions: extract at 2%, zinc gluconate 1%
Experimental: as §1, §2
At 28 days of treatment, the number of active sebaceous glands had decreased by 7.4% in the subjects who had applied the extract according to Example 1a) at 2% (measurement of the number of spots present on the patches compared against D0).
as §3

[4] = tested on: squalene synthesis on explants of normal human skin; experiment: Biosynthesis of squalene from 4-14C mevalonate on explants of normal human skin (in vitro); format: cell-based; conditions: percentage relative to untreated negative control; extracts of culture media; 24 h; n=3 biopsies; extract at 2%, zinc gluconate at 1%
Experimental: The principle of this evaluation is based on the measurement of the biosynthesis of squalene, a specific tracer of the production of human sebum by the sebocytes, from radiolabelled mevalonic acid.
1) Freshly taken biopsies of human skin (n=3) are incubated in 5 ml of culture medium in the presence or absence of the test products for 24 h.
2) An amount of radioactive products of 2 μCi of mevalonate 4-^14C is then added to the biopsies and the whole is incubated again for 24 h.
3) Extraction of the culture media and of the surface of the skin is carried out with isopropyl ether, then the skin samples are dried and weighed as dry weight.
4) The extraction products are analysed by thin-layer chromatography and the quantity of metabolites of ^14C-mevalonate (squalene) is evaluated.
The squalene on the surface of the skin in culture is extracted, then deposited on HPTLC (high-performance thin layer chromatography) plates and migrated after addition of 10 μg of a squalene standard by deposition in the presence of heptane as migration solvent. The radioactivity of the squalene is visualized in a conventional manner. Each radioactive spot corresponding to squalene is scraped onto the HPTLC plates and the radioactivity is measured using a scintillation counter. Each count was expressed in grams of dry tissue. […]

## zinc gluconate
[1]
  change of content of squalene in the sebum (signed): −14%
Asian volunteers
  volunteers declaring refinement of their skin grain (self-evaluation): 52%
[2]
  pore size reduced by (clinical assessment): 17.5%
[3]; 2 days after D 28 (after stopping the treatment)
  Active sebaceous glands, % Dn/D 0: −3.8%
[3]; D 28
  Active sebaceous glands, % Dn/D 0: +8.5%
[4]
  Measurement of squalene synthesis, Mean value: 76.6%
